The values that follow come from ChEMBL document CHEMBL1153108, “Neolignans from Piper kadsura and their anti-neuroinflammatory activity” (Bioorg Med Chem Lett, 2010).

Series [1] deals with BV-2. Nature of the series: Antineuroinflammatory activity in mouse BV2 cells assessed as inhibition of LPS-induced nitric oxide production at 20 uM after 24 hrs by Griess reagent method. The class given is functional. The following applies: for inhibition at 20 µM: BV-2, 24 h.
For series [2], the system named is BV-2. Put plainly: Antineuroinflammatory activity in mouse BV2 cells assessed as inhibition of LPS-induced nitric oxide production after 24 hrs by Griess reagent method. The class given is functional, cell-based. The following applies: for IC50: BV-2, 24 h.
Series [3] is described as follows: Cytotoxicity against mouse BV2 cells by MTT assay. The class given is cell-based, BV-2. Particulars: read-out: INH. In general terms: Tetrazolium dyes change colour on reduction, which living cells bring about.
Series [4] can be described thus: Effect on nitric oxide radical scavenging activity in sodium nitroprusside solution assessed as nitric oxide release after 15 mins by Griess reagent method. The series is classed as physicochemical. The following applies: 0.25 h. In general terms: Griess reagent forms a coloured azo dye with nitrite.
The target of series [5] is T1, Nitric oxide synthase, inducible (Mus musculus) (UniProt P29477).
T1 sequence (whole entry): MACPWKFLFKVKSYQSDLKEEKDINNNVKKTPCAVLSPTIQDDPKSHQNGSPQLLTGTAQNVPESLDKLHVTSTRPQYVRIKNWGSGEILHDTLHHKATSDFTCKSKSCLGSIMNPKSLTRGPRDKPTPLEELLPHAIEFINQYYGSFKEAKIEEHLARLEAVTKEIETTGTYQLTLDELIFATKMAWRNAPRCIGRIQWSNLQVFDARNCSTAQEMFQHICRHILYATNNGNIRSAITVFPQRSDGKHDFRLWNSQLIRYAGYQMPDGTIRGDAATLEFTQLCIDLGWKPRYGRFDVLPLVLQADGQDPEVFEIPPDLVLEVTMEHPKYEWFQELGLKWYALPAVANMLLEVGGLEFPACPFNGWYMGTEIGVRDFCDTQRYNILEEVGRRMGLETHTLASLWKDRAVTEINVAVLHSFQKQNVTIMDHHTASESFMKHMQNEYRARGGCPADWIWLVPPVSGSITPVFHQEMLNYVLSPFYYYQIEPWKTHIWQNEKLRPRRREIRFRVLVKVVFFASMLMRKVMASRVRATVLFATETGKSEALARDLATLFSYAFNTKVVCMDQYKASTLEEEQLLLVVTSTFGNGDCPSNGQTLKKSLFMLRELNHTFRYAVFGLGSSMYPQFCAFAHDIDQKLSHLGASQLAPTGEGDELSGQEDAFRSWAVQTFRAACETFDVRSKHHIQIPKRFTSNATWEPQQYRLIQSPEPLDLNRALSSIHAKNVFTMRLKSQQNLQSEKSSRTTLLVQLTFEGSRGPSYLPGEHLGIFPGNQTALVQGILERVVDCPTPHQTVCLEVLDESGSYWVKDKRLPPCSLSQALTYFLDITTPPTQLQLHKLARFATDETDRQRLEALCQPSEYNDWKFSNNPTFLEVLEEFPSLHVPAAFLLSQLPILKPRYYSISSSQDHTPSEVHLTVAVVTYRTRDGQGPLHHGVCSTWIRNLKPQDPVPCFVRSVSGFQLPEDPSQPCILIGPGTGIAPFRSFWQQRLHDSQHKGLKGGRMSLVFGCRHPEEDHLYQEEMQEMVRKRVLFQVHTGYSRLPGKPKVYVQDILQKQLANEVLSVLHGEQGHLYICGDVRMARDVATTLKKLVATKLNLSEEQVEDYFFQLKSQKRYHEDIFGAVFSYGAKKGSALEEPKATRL
Nature of the series: Inhibition of iNOS in LPS-stimulated mouse BV2 cells at 25 to 100 uM after 24 hrs by Griess reagent method. The series is classed as cell-based. Particulars: BV-2.

Series [6] concerns BV-2. Nature of the series: Inhibition of LPS-induced iNOS expression in mouse BV2 cells at 5 to 20 uM after 6 hrs by Western blot analysis. The series is classed as functional, cell-based. (In western blotting, separated proteins are transferred to a membrane and probed.)

Calls of active or inactive are those of the source. The rule behind the calls is not given here.

The inhibition is the percentage by which the read-out fell short of the control. The term IC50 denotes the concentration needed to halve the response being measured.

Regarding `C=CCc1ccc(OC)c(OC(C)C(OC(C)=O)c2ccc(OC)c(OC)c2)c1OC` (stereo not given), the inhibition at 20 µM in the series on BV-2 [1] was determined as 27.2%. Further, the half-maximal inhibitory concentration (IC50) in the series on BV-2 [2] came to 33.2 µM.
On to `C=CCC1=C[C@]2(OC)[C@H](C)[C@@H](c3ccc(OC)c(OC)c3)[C@H](C1=O)[C@@H]2OC(C)=O`, for which the inhibition result in the series with BV-2 [1] is “inactive”.
`C=CC[C@]12C(=O)C=C(OC)[C@]3(OC)[C@@H]1[C@]3(C)[C@H]2c1ccc2c(c1)OCO2`: in the series on BV-2 [1], the inhibition result is “inactive”.
Regarding `C=CCC1=C[C@]2(OC)C(=CC1=O)O[C@H](c1ccc3c(c1)OCO3)[C@H]2C` [DENUDATIN A], in series [3], the cytotoxicity was determined as 23.2%.
Consider `C=CCC1=CC(OC)(/C(C)=C/c2ccc3c(c2)OCO3)C(OC)=CC1=O` (stereo not given) [FUTOQUINOL], for which, in the series on BV-2 [1], the inhibition at 20 µM worked out at 55.3%. In addition, in the series on BV-2 [2], the inhibition result was “Dose-dependent effect” and the IC50 amounted to 16.8 µM.
Take `C=CCC1=C[C@@]2(OC)C(=CC1=O)O[C@H](c1ccc(OC)c(OC)c1)[C@H]2C` [KADSURENONE]: in the series on BV-2 [1], the inhibition result is “inactive”. Also, the cytotoxicity in series [3] was determined as 21.3%.
Take `C=CCC1=CC2=C(OC)[C@H](C1=O)[C@]2(C)[C@H](O)c1ccc2c(c1)OCO2` [PIPERKADSIN C]: in the series on BV-2 [1], the inhibition at 20 µM amounted to 60.8%. Also, the Activity entry in series [4] was “Not Active”. For the same compound, the result in series [5] was Active. Besides, the result in the series with BV-2 [6] was inactive. Further, in the series on BV-2 [2], the inhibition entry was “Dose-dependent effect” and the half-maximal inhibitory concentration (IC50) was 14.6 µM.
`CNC(=N)NCCC[C@H](N)C(=O)O` [TILARGININE]: the inhibition at 20 µM in the series with BV-2 [1] worked out at 55.3%. Further, the 50% inhibitory concentration (IC50) in the series with BV-2 [2] stood at 16.8 µM.
With `C=CCC1=CC(OC)(/C(C)=C/c2ccc(OC)c(OC)c2)C(OC)=CC1=O` (stereo not given) [WALLICHININE], in the series with BV-2 [1], the inhibition at 20 µM was determined as 18.5%. In addition, the IC50 in the series on BV-2 [2] came out at 45.6 µM.
